Measured values: patent publication US8592435B2, “Nitrogen-containing six-membered aromatic ring derivatives and pharmaceutical products containing the same” (Daiichi Sankyo Company, Limited, priority 2007, dated 2013)
Counter-ions that a name gives are not always drawn.

What was measured:
hippocampal neurons = test: Test Example 1: ability to promote axonal outgrowth; type: cell-based, Wistar rats; details: for activity at 3 µM: Compound Conc. = 3 μM
Procedure: According to the method of M. P. Mattson [M. P. Mattson, Brain Res. Rev., 13, 179, (1988)], the hippocampal region was isolated from 18-day embryos of female Wistar rats and the neurons were dispersed using the papain dissociation system. Hippocampal neuron were suspended in 5% Nu-serum+B27 supplement+Neurobasal medium at 5×10^4 cells/well/2 mL. 2 mL of the cell suspension were inoculated on a poly-D-lysine-coated 36φ dish and the neuron were incubated at 37° C. in a 5% CO2 incubator.
On day 3 of the incubation period, 1 mL of the culture medium was replaced with 1 mL of 5% Nu-serum+B27 supplement+Neurobasal medium containing 2 mM AraC. Each test compound was added to the culture on day 3 and day 7 of the incubation period. On day 9, cells were fixed in a 4% paraformaldehyde solution. The nerve axons of the fixed cells were stained with the Rabbit anti-growth-associated protein-43 polyclonal antibody and the stained cells were quantified using Kurabo neuron outgrowth-quantication software.
The ability (%) of each test compound to promote axonal outgrowth was calculated from the following equation: The ability to promote axonal outgrowth (%)=[(measurement with a compound of interest)/(measurement of control)]×100
Example Compounds shown in Table 25 were used as test compounds and were each added at concentrations of 3 μM and 0.3 μM.
Since bFGF gives a measurement of about 120 in this test, 120 is used as the threshold to determine whether a given compound has the ability to promote axonal outgrowth

[1] = test system: mixture of human vascular endothelial cells and fibroblasts; test: Test Example 2: ability to promote angiogenesis (angiogenesis test kit KZ-1000); type: cell-based; details: for activity at 3 µM / activity at 0.3 µM: Homo sapiens, 216 h, lumen length, % of control, day 9, read-out: Promotion of angiogenesis (%); for activity at 3 µM: Compound Conc. = 3 μM; for activity at 0.3 µM: Compound Conc. = 0.3 μM
Procedure: Using an angiogenesis test kit containing a mixture of human vascular endothelial cells and fibroblasts [KZ-1000; Kurabo], the ability of test compounds to promote angiogenesis was evaluated. Each test compound was added on days 1, 4, and 7 of the incubation period. On day 9, cells were immunostained with CD31 and photographed. Control cells were cultured under the same conditions, only without the addition of a test compound, and photographed.
The lumen length of the blood vessel was quantified from the obtained images using an angiogenesis-quantification software. The ability (%) of each test compound to promote angiogenesis was calculated from the following equation: The ability to promote angiogenesis (%)=[(measurement with a compound of interest)/(measurement of control)]×100
Example Compounds shown in Table 26 were used as test compounds.
Since bFGF gives a measurement of about 120 in this test, 120 is used as the threshold to determine whether a given compound has the ability to promote angiogenesis.

spinal cord neurons = test: Test Example 3: ability to promote the neurite outgrowth of spinal cord neurons; type: cell-based, Wistar rats; details: for Promotion of spinal cord neurite outgrowth (%): Compound Conc. = 0.1 μM, % of control, day 3
Procedure: According to the method of Martin G. Hanson Jr. [J. Neurosci., 1998 Sep. 15; 18(18): 7361-71], the spinal cord region was isolated from 15-day embryos of female Wistar rats and the cells were dispersed using the papain dissociation system. Neurons were collected using 6.8% Metrizamide density gradient and were suspended in 2% FBS+Leibovitz's −15 medium so that the density of the cells will be 2×10^3 cells/well/200 μL. 200 μL of the cell suspension was inoculated on a poly-D-lysine/laminin-coated 96 well plate and the plate was incubated in an incubator at 37° C. Test compounds were added 1 hour after seeding of cells.
On day 3 of the incubation period, neurons were stained with Calcein-AM and the lengths of neurites were determined using IN Cell Analyzer (GE Healthcare Bioscience).
The ability (%) of each test compound to promote neurite outgrowth was calculated from the following equation: The ability to promote neurite outgrowth (%)=[(measurement with a compound of interest)/(measurement of control)]×100
Example Compounds 65, 71, 74, 92, 130 and 135 were used as test compounds and were each added at a concentration of 0.1 μM.
The results are shown in Table 27. bFGF gives a measurement of about 130 in this test.

chemokine receptor CCR3 = target: T1, chemokine receptor CCR3 (Homo sapiens, UniProt P51677); test: Affinity to chemokine receptor CCR3; type: binding; details: at a concentration of 10 μM
T1 sequence (P51677 1-355): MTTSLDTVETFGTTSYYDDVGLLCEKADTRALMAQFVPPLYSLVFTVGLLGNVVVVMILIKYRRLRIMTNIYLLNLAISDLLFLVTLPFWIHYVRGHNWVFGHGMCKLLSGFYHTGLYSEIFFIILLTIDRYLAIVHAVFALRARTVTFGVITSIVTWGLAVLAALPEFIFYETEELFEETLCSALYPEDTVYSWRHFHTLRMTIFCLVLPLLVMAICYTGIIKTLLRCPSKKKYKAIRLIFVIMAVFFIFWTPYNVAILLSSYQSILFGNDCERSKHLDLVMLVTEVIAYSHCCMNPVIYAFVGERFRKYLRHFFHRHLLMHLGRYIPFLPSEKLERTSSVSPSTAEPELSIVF
Text: Although the compounds of the present invention are novel compounds, compounds having a partly similar skeleton are described, for example, in Published Japanese Translation of PCT International Application No. 2003-507456, WO 01/79170 and WO 00/23076.

[2] = test system: critical limb ischemia model (left femoral artery excised); test: Test Example 4: lower limb ischemia (critical limb ischemia) model in mice; type: in vivo, Balb/c mice; details: oral once daily 0.1 or 1.0 mg/kg for 10 days from femoral artery excision, vs Vehicle
Procedure: According to the method of Ichiro Masaki [Circ Res. 90; 966-973 (2002)], the left femoral artery of Balb/c mice was excised to establish a model of critical limb ischemia (n=29 to 30).
Test compounds used were Example Compounds 65, 92, 114, 130, 135 and 136, each of which was orally administered once daily at a dose of 0.1 mg/kg or 1.0 mg/kg for 10 days starting from the day of femoral artery excision.
The results are shown in FIGS. 1 to 6 in which FIGS. 1, 2, 3, 4, 5 and 6 show the results of Example Compounds 65, 92, 114, 130, 135 and 136, respectively.
In the figures, a thick solid line indicates a Vehicle group, a thin dotted line indicates a group administered 0.1 mg/kg/day of each compound, and a thin solid line indicates a group administered 1.0 mg/kg/day of each compound.
*: P<0.05, **: P<0.01, ***: P<0.001 vs Vehicle by Wilcoxon's test.

[3] = Hippocampal neuron, 216 h, % of control, rat hippocampal neurons, day 9, read-out: Promotion of axonal outgrowth (%)
[4] = reference, concentration not given, used as threshold

Compound | activity at 3 µM (hippocampal neurons; [3]) | activity at 3 µM [1] | also measured
Cc1nc(OCC(=O)N(C)C2CCN(CC3CCCCC3)CC2)nc(C)c1N [Compound 71, 2-(5-amino-4,6-dimethylpyrimidine-2-yloxy)-N-(1-(cyclohexylmethyl)piperidine-4-yl)-N-methylacetamide] | 140% | 126% | Promotion of spinal cord neurite outgrowth (%) (spinal cord neurons): 139%
Cc1nc(OCC(=O)N(C)C2CCN(C(=O)c3ccccc3)CC2)nc(C)c1N [Compound 74, 2-(5-amino-4,6-dimethylpyrimidine-2-yloxy)-N-(1-benzoylpiperidine-4-yl)-N-methylacetamide] | 159% | 136% | Promotion of spinal cord neurite outgrowth (%) (spinal cord neurons): 125%
Cc1nc(OCC(=O)N(C)C2CCN(Cc3ccc(F)cc3)CC2)nc(C)c1N [Compound 85, 2-(5-amino-4,6-dimethylpyrimidine-2-yloxy)-N-(1-(4-fluorobenzyl)piperidine-4-yl)-N-methylacetamide] | 140% | 123% | affinity to chemokine receptor CCR3 (chemokine receptor CCR3): 2.4%
Cc1nc(OCC(=O)N(C)C2CCN(Cc3cc(F)c(F)c(F)c3)CC2)nc(C)c1N [Compound 91, 2-(5-amino-4,6-dimethylpyrimidine-2-yloxy)-N-methyl-N-(1-(3,4,5-trifluorobenzyl)piperidine-4-yl)acetamide] | 150% | 124% | affinity to chemokine receptor CCR3 (chemokine receptor CCR3): 18%
Cc1nc(OCC(=O)N(C)C2CCN(C(=O)C3CC3)CC2)nc(C)c1N [Compound 92, 2-(5-amino-4,6-dimethylpyrimidine-2-yloxy)-N-(1-(cyclopropanecarbonyl)piperidine-4-yl)-N-methylacetamide] | 127% | 153% | Promotion of spinal cord neurite outgrowth (%) (spinal cord neurons): 120%; survival rate of lower limb [2]: increased survival rate
CNc1c(C)nc(OC(C)C(=O)N(C)C2CCN(Cc3ccccc3)CC2)nc1C (centres unmarked) [Compound 100, N-(1-benzylpiperidine-4-yl)-2-(4,6-dimethyl-5-(methylamino)pyrimidine-2-yloxy)-N-methylpropanamide] | 128% |  | activity at 0.3 µM [1]: 116%
Cc1nc(OCC(=O)NC2CCN(C(=O)c3ccc(F)cc3)CC2)nc(C)c1N [Compound 102, 2-(5-amino-4,6-dimethylpyrimidine-2-yloxy)-N-(1-(4-fluorobenzoyl)piperidine-4-yl)acetamide] | 233% |  | affinity to chemokine receptor CCR3 (chemokine receptor CCR3): 0.0%
Cc1cnc(Cl)nc1NCC(=O)N(C)C1CCN(Cc2ccccc2)CC1 [Compound 109, N-(1-benzylpiperidine-4-yl)-2-(2-chloro-5-methylpyrimidine-4-ylamino)-N-methylacetamide] | 159% | 124% | affinity to chemokine receptor CCR3 (chemokine receptor CCR3): 16%
Cc1cnc(N)nc1NCC(=O)N(C)C1CCN(Cc2ccccc2)CC1 [Compound 111, 2-(2-amino-5-methylpyrimidine-4-ylamino)-N-(1-benzylpiperidine-4-yl)-N-methylacetamide maleate] |  | 121% | activity at 0.3 µM (hippocampal neurons; Hippocampal neuron, 216 h, Compound Conc. = 0.3 μM, % of control, rat hippocampal neurons, day 9, read-out: Promotion of axonal outgrowth (%)): 118%
CN(C(=O)Cn1cc(F)c(N)nc1=O)C1CCN(Cc2ccccc2)CC1 [Compound 114, 2-(4-amino-5-fluoro-2-oxopyrimidine-1(2H)-yl)-N-(1-benzylpiperidine-4-yl)-N-methylacetamide] | 183% | 125% | survival rate of lower limb [2]: increased survival rate
Cc1cc([N+](=O)[O-])cnc1NCC(=O)N(C)C1CCN(Cc2ccccc2)CC1 [Compound 123, N-(1-benzylpiperidine-4-yl)-N-methyl-2-(3-methyl-5-nitropyridine-2-ylamino)acetamide] | 131% | 132% | 
CN(C(=O)COc1nccnc1Cl)C1CCN(Cc2ccccc2)CC1 [Compound 128, N-(1-benzylpiperidine-4-yl)-2-(3-chloropyrazine-2-yloxy)-N-methylacetamide hydrochloride] | 156% |  | activity at 0.3 µM [1]: 115%
CN(C)c1ccc(OCC(=O)N(C)C2CCN(C(=O)C3CC3)CC2)nn1 [Compound 136, N-(1-(cyclopropanecarbonyl)piperidine-4-yl)-2-(6-(dimethylamino)pyridazine-3-yloxy)-N-methylacetamide] | 133% |  | activity at 0.3 µM [1]: 110%; survival rate of lower limb [2]: increased survival rate
bFGF: basic fibroblast growth factor (bFGF), a growth factor known to promote angiogenesis; reference that sets the threshold |  |  | Promotion of axonal outgrowth, measurement of bFGF in this test (hippocampal neurons; [4]): about 120%; Promotion of angiogenesis, measurement of bFGF in this test [1, 4]: about 120%; Promotion of spinal cord neurite outgrowth, measurement of bFGF in this test (spinal cord neurons; reference, concentration not given): about 130%
